pIC50: −log10 of the molar value.
Tests used:
[1] = target: T1, Solute carrier family 22 member 12 (Homo sapiens, UniProt Q96S37); experiment: Inhibition of URAT1 (unknown origin)
T1 sequence (Q96S37 whole entry): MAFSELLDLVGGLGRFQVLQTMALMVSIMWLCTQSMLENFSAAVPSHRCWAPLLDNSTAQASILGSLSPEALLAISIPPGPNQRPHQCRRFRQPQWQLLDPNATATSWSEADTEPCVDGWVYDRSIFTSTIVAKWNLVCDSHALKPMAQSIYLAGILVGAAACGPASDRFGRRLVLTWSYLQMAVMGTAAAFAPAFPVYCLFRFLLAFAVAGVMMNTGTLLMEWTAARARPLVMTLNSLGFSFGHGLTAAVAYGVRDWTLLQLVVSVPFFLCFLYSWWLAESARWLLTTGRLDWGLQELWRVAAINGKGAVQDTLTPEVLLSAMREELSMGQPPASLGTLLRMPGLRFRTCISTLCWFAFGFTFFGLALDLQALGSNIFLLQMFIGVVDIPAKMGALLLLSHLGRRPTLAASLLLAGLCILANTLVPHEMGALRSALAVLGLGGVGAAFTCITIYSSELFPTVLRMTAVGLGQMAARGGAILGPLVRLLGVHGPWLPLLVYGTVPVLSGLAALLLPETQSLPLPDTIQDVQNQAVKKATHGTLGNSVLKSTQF

[2] = target: T1, Solute carrier family 22 member 12; experiment: Inhibition of human URAT1 expressed in HEK293T cells by assessed as 14C-uric acid uptake preincubated for 5 mins followed by 14C-uric acid addition and measured after 10 mins by liquid scintillation counting method; format: cell-based
[3] = target: T2, Solute carrier family 2, facilitated glucose transporter member 9 (Homo sapiens, UniProt Q9NRM0); experiment: Inhibition of GLUT9 (unknown origin)
T2 sequence (Q9NRM0 whole entry): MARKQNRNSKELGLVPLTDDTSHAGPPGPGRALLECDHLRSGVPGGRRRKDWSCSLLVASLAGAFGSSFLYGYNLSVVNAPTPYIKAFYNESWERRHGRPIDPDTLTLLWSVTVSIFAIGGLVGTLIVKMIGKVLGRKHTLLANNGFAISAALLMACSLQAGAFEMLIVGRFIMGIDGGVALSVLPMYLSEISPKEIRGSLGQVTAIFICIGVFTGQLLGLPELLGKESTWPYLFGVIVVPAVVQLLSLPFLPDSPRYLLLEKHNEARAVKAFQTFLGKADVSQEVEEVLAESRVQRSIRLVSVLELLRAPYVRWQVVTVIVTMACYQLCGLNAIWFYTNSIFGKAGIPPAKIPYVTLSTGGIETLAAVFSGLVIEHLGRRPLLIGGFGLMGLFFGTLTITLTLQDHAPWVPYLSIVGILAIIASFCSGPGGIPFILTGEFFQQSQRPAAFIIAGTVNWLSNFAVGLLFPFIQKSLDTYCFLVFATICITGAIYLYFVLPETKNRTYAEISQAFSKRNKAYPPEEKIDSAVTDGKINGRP

[4] = target: T3, Xanthine dehydrogenase/oxidase (Homo sapiens, UniProt P47989); experiment: Inhibition of Xanthine oxidase (unknown origin)
[5] = target: T3, Xanthine dehydrogenase/oxidase; experiment: Inhibition of XOR (unknown origin)
[6] = target: T1, Solute carrier family 22 member 12; experiment: Inhibition of URAT1 (unknown origin) expressed in human HK-2 cells at 10 uM relative to control; format: cell-based; settings: HK-2, human
[7] = target: T1, Solute carrier family 22 member 12; experiment: Inhibition of human URAT1 stably expressed in HEK293 cells by measuring 14C-uric acid uptake pre-incubated for 15 mins followed by 14C-uric acid addition and measured for 30 mins by liquid scintillation counter analysis; format: cell-based
[8] = target: T1, Solute carrier family 22 member 12; experiment: Inhibition of human URAT1 stably expressed in HEK293T cells; format: cell-based
[9] = target: T3, Xanthine dehydrogenase/oxidase; experiment: Inhibition of xanthine oxidase (unknown origin) by absorbance based assay

T3 sequence (P47989 whole entry): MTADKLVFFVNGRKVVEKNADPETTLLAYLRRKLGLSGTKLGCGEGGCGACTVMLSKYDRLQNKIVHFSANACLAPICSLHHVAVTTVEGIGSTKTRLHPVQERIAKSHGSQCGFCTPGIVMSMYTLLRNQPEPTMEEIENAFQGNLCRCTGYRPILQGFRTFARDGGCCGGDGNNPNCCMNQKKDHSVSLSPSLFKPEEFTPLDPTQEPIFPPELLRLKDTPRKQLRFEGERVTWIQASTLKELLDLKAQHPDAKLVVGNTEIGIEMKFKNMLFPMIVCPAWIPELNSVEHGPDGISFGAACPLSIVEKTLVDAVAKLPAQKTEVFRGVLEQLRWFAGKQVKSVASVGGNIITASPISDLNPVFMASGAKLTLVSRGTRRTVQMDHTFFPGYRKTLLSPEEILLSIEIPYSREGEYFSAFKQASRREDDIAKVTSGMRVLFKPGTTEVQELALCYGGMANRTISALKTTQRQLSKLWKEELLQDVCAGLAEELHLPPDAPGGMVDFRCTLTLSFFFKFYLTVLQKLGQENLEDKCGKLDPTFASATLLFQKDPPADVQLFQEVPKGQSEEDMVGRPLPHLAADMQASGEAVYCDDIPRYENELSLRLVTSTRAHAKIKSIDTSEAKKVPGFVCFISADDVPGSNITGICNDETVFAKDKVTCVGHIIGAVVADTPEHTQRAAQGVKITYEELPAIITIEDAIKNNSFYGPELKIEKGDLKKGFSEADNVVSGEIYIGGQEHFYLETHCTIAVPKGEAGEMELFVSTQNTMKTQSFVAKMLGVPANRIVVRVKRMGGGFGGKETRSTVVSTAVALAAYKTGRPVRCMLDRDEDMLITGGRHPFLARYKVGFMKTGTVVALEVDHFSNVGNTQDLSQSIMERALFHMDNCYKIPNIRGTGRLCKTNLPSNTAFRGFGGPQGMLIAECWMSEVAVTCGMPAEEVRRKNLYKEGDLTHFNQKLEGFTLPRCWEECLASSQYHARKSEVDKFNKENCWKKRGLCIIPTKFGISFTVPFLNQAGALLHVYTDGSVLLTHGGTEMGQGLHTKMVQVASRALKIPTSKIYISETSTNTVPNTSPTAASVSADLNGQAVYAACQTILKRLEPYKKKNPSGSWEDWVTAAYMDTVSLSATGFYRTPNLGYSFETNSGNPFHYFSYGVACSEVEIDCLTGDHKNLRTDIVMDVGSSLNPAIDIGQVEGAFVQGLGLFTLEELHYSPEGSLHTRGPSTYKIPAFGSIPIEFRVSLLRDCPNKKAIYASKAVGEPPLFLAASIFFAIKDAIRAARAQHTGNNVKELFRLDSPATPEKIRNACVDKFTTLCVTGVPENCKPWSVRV

Q: How did the pIC50 [1] turn out when `O=C(O)C1(Sc2ccnc3ccc(Br)cc23)CCC1` [SHR-4640] was run?
A: 7.28

Q: How did the pIC50 [2] turn out when `O=C(O)C1(Sc2ccccc2N2CCOc3ccc(Br)cc32)CCC1` was run?
A: 5.77

Q: Which results are given for `CC(C)=CCc1c(O)ccc2c1O[C@H](c1ccc(O)cc1)CC2=O` [ISOBAVACHIN]?
A: pIC50 [1]: 6.62; pIC50 [3]: 5.95; pIC50 [4]: 4.84

Q: How did the pIC50 [5] turn out when `N#Cc1cc(-c2n[nH]c(-c3ccncc3)n2)ccn1` [TOPIROXOSTAT] was run?
A: 7.82

Q: `CCn1c(=O)sc2cc(-c3ccc(C(=O)O)c(O)c3)ccc21` was tested. Which pIC50 [1] did it give?
A: 4.52

Q: What about the pIC50 [4] of the same molecule?
A: 7.92

Q: For `COc1cc2c3c(c1OS(=O)(=O)c1ccc(F)cc1)-c1ccccc1C[C@H]3N(C)CC2`, which inhibition at 10 µM [6] is on record?
A: 61%

Q: How did the pIC50 [1] turn out when `O/N=C(\Cc1ccc(Br)cc1)c1ccc(O)cc1O` was run?
A: 6.84

Q: What about the pIC50 [4] of the same molecule?
A: 5.48

Q: `CCCc1ccc(Cn2c(Br)nnc2SCC(=O)O)c2ccccc12` was tested. Which pIC50 [7] did it give?
A: 7.04

Q: With `Cc1nc(-c2ccc(OCC(C)C)c(C#N)c2)sc1C(=O)O` [FEBUXOSTAT] as the molecule, how does the pIC50 [4] read?
A: 8.00

Q: `O=c1c2cc(O)c(O)cc2oc2cc(OCc3ccccc3)cc(O)c12` was tested. Which pIC50 [4] did it give?
A: 5.48

Q: How did the pIC50 [5] turn out when `O=C(/C=C/c1ccc(O)c2oc(-c3ccc(O)c(O)c3)cc12)O[C@H](Cc1ccc(O)c(O)c1)C(=O)O` was run?
A: 5.01

Q: With `N#Cc1cc(-n2cnc(C(=O)O)c2)ccc1N1CCCCCC1` as the molecule, how does the pIC50 [8] read?
A: 4.97

Q: `COc1ccc(C2CC(=O)c3c(O)cc(O)cc3O2)cc1O` (configuration not stated) was tested. Which pIC50 [9] did it give?
A: 6.08

From ChEMBL document CHEMBL6103540, “Recent Progress and Future Perspectives on Anti-Hyperuricemic Agents” (J Med Chem, 2024)
